Assay: in vitro
Conditions: for Concentration (μM) of analyte PEA, 0 min / Concentration (μM) of analyte PEA, 10 min / Concentration (μM) of analyte PEA, 20 min / Concentration (μM) of analyte PEA, 30 min / Concentration (μM) of analyte PEA, 60 min / % Remaining of Initial (n = 1), 0 min / % Remaining of Initial (n = 1), 10 min / % Remaining of Initial (n = 1), 20 min / % Remaining of Initial (n = 1), 30 min / % Remaining of Initial (n = 1), 60 min: 1 μM; for % Remaining of Initial (n = 1), 0 min: s9, 0 h; for % Remaining of Initial (n = 1), 10 min: s9, 10 min; for % Remaining of Initial (n = 1), 20 min: s9, 20 min; for % Remaining of Initial (n = 1), 30 min: s9, 0.5 h; for % Remaining of Initial (n = 1), 60 min: s9, 1 h; for half-life at 1 μM: s9, Half-life (min)
Experimental: Reaction mixture, minus cofactors, was prepared as described below. Test article was added into the reaction mixture at a final concentration of 1 μM. […] An aliquot of the reaction mixture (without cofactor cocktail) was equilibrated in a shaking water bath at 37° C. for 3 minutes. The reaction was initiated by the addition of cofactor cocktail (see below), and the mixture was then incubated in a shaking water bath at 37° C. Aliquots (100 μL) were withdrawn 0, 10, 20, 30 and 60 minutes. Test article samples were immediately combined with 300 μL of ice-cold acetonitrile containing 1% formic acid. Control samples were immediately combined with 400 μL of ice-cold 50/50 acetonitrile (ACN)/dH2O containing 0.1% formic acid and internal standard to terminate the reaction. Samples were then mixed and centrifuged to precipitate proteins. Calibration standards were prepared in matched matrix. Samples and standards were assayed by LC-MS/MS using electrospray ionization for both the dosed prodrug and the expected drug (PEA). Analytical conditions are outlined in Appendix 8-1. Test article concentration at each time point was compared to the test article concentration at time 0 to determine the percent remaining at each time point. Half-lives were calculated using GraphPad software, fitting to a single-phase exponential decay equation.
Reaction mixture, minus cofactors, was prepared as described below. Test article was added into the reaction mixture at a final concentration of 1 μM. […] An aliquot of the reaction mixture (without cofactor cocktail) was equilibrated in a shaking water bath at 37° C. for 5 minutes. Reaction was initiated by the addition of cofactor cocktail (see below), and mixture was then incubated in a shaking water bath at 37° C. Aliquots (100 μL) were withdrawn at 0, 10, 20, 30, and 60 minutes. Test article samples were immediately combined with 300 μL of ice-cold acetonitrile containing 1% formic acid. Control samples were immediately combined with 400 μL of ice-cold 50/50 acetonitrile (ACN)/dH2O containing 0.1% formic acid and internal standard to terminate the reaction. Samples were then mixed and centrifuged to precipitate proteins. Calibration standards were prepared in matched matrix. Samples and standards were assayed by LC-MS/MS using electrospray ionization for both dosed prodrug and expected drug (PEA). Analytical conditions are outlined in Appendix 10-1. Test article concentration at each time point was compared to test article concentration at time 0 to determine the percent remaining at each time point. Half-lives were calculated using GraphPad software, fitting to a single-phase exponential decay equation.
The reaction mixture, minus cofactors, was prepared as described below. Test article was added into the reaction mixture at a final concentration of 1 μM. […] An aliquot of the reaction mixture (without cofactor cocktail) was equilibrated in a shaking water bath at 37° C. for 3 minutes. Reaction was initiated by the addition of cofactor cocktail (see below), and the mixture was then incubated in a shaking water bath at 37° C. Aliquots (100 μL) were withdrawn at 0, 10, 20, 30, and 60 minutes. Test article samples were immediately combined with 300 μL of ice-cold acetonitrile containing 1% formic acid. Control samples were immediately combined with 400 μL of ice-cold 50/50 acetonitrile (ACN)/dH2O containing 0.1% formic acid and internal standard to terminate the reaction. Samples were then mixed and centrifuged to precipitate proteins. Calibration standards were prepared in matched matrix. Samples and standards were assayed by LC-MS/MS using electrospray ionization for both dosed prodrug and expected drug (PEA). Analytical conditions are outlined in Appendix 13-1. Test article concentration at each time point was compared to the test article concentration at time 0 to determine the percent remaining at each time point.

## CC/C=C\C/C=C\C/C=C\C/C=C\C/C=C\CCCC(=O)OCCNC(=O)CCCCCCCCCCCCCCC [Compound I-5]
both, human
  Concentration (μM) of analyte PEA, 0 min: 0.024 µM
  Concentration (μM) of analyte PEA, 10 min: 0.036 µM
  Concentration (μM) of analyte PEA, 20 min: 0.036 µM
  Concentration (μM) of analyte PEA, 30 min: 0.025 µM
  Concentration (μM) of analyte PEA, 60 min: 0.018 µM
  % Remaining of Initial (n = 1), 0 min: 100%
  % Remaining of Initial (n = 1), 10 min: 80%
  % Remaining of Initial (n = 1), 20 min: 81%
  % Remaining of Initial (n = 1), 30 min: 70%
  % Remaining of Initial (n = 1), 60 min: 72%
  half-life at 1 μM: > 1 h
male, Beagle, dog
  Concentration (μM) of analyte PEA, 0 min: 0.024 µM
  Concentration (μM) of analyte PEA, 10 min: 0.044 µM
  Concentration (μM) of analyte PEA, 20 min: 0.036 µM
  Concentration (μM) of analyte PEA, 30 min: 0.041 µM
  Concentration (μM) of analyte PEA, 60 min: 0.038 µM
  % Remaining of Initial (n = 1), 0 min: 100%
  % Remaining of Initial (n = 1), 10 min: 72%
  % Remaining of Initial (n = 1), 20 min: 79%
  % Remaining of Initial (n = 1), 30 min: 74%
  % Remaining of Initial (n = 1), 60 min: 85%
  half-life at 1 μM: > 1 h
male, CD-1, mouse
  Concentration (μM) of analyte PEA, 0 min: 0.046 µM
  Concentration (μM) of analyte PEA, 10 min: 0.061 µM
  Concentration (μM) of analyte PEA, 20 min: 0.043 µM
  Concentration (μM) of analyte PEA, 30 min: 0.029 µM
  Concentration (μM) of analyte PEA, 60 min: 0.018 µM
  % Remaining of Initial (n = 1), 0 min: 100%
  % Remaining of Initial (n = 1), 10 min: 66%
  % Remaining of Initial (n = 1), 20 min: 50%
  % Remaining of Initial (n = 1), 30 min: 59%
  % Remaining of Initial (n = 1), 60 min: 50%
male, Sprague-Dawley, rat
  Concentration (μM) of analyte PEA, 0 min: 0.020 µM
  Concentration (μM) of analyte PEA, 10 min: 0.025 µM
  Concentration (μM) of analyte PEA, 20 min: 0.037 µM
  Concentration (μM) of analyte PEA, 30 min: 0.026 µM
  Concentration (μM) of analyte PEA, 60 min: 0.013 µM
  % Remaining of Initial (n = 1), 0 min: 100%
  % Remaining of Initial (n = 1), 10 min: 98%
  % Remaining of Initial (n = 1), 20 min: 82%
  % Remaining of Initial (n = 1), 30 min: 75%
  % Remaining of Initial (n = 1), 60 min: 67%
  half-life at 1 μM: > 1 h
male, Sprague-Dawley, rat, calculated half-life in parentheses
  half-life at 1 μM: 1.52 h

## CCCCC/C=C\C/C=C\CCCCCCCC(=O)OCCNC(=O)CCCCCCCCCCCCCCC [Compound I-6]
both, human
  Concentration (μM) of analyte PEA, 0 min: 0.014 µM
  Concentration (μM) of analyte PEA, 10 min: 0.037 µM
  Concentration (μM) of analyte PEA, 20 min: 0.022 µM
  Concentration (μM) of analyte PEA, 30 min: 0.022 µM
  Concentration (μM) of analyte PEA, 60 min: 0.016 µM
  % Remaining of Initial (n = 1), 0 min: 100%
  % Remaining of Initial (n = 1), 10 min: 80%
  % Remaining of Initial (n = 1), 20 min: 102%
  % Remaining of Initial (n = 1), 30 min: 95%
  % Remaining of Initial (n = 1), 60 min: 77%
  half-life at 1 μM: > 1 h
male, Beagle, dog
  Concentration (μM) of analyte PEA, 0 min: 0.016 µM
  Concentration (μM) of analyte PEA, 10 min: 0.044 µM
  Concentration (μM) of analyte PEA, 20 min: 0.041 µM
  Concentration (μM) of analyte PEA, 30 min: 0.049 µM
  Concentration (μM) of analyte PEA, 60 min: 0.037 µM
  % Remaining of Initial (n = 1), 0 min: 100%
  % Remaining of Initial (n = 1), 10 min: 101%
  % Remaining of Initial (n = 1), 20 min: 106%
  % Remaining of Initial (n = 1), 30 min: 102%
  % Remaining of Initial (n = 1), 60 min: 110%
  half-life at 1 μM: > 1 h
male, CD-1, mouse
  Concentration (μM) of analyte PEA, 0 min: 0.030 µM
  Concentration (μM) of analyte PEA, 10 min: 0.041 µM
  Concentration (μM) of analyte PEA, 20 min: 0.033 µM
  Concentration (μM) of analyte PEA, 30 min: 0.031 µM
  Concentration (μM) of analyte PEA, 60 min: 0.015 µM
  % Remaining of Initial (n = 1), 0 min: 100%
  % Remaining of Initial (n = 1), 10 min: 87%
  % Remaining of Initial (n = 1), 20 min: 87%
  % Remaining of Initial (n = 1), 30 min: 99%
  % Remaining of Initial (n = 1), 60 min: 75%
  half-life at 1 μM: > 1 h
male, Sprague-Dawley, rat
  Concentration (μM) of analyte PEA, 0 min: 0.020 µM
  Concentration (μM) of analyte PEA, 10 min: 0.035 µM
  Concentration (μM) of analyte PEA, 20 min: 0.021 µM
  Concentration (μM) of analyte PEA, 30 min: 0.021 µM
  Concentration (μM) of analyte PEA, 60 min: 0.013 µM
  % Remaining of Initial (n = 1), 0 min: 100%
  % Remaining of Initial (n = 1), 10 min: 64%
  % Remaining of Initial (n = 1), 20 min: 82%
  % Remaining of Initial (n = 1), 30 min: 93%
  % Remaining of Initial (n = 1), 60 min: 89%
  half-life at 1 μM: > 1 h
